Data from patent US20060258598A1, “Alpha-keto carbonyl calpain inhibitors” (priority 2003, published 2006).

Assays:
[1] = test system: cellular calpains in C2C12 myoblasts; experiment: Calpain inhibition assay in C2C12 myoblasts; format: cell-based; conditions: 2 h incubation, calcium ionophore Br-A-23187, read-out: Calp I IC50 Myoblast
How it was run: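 Confluent C2C12 myoblasts in fusion medium (DMEM, 5% horse serum) exposed to compound for 2 h at 37 °C, then loaded with 400 μM Suc-Leu-Tyr-AMC for 20 min at room temperature in buffer with 4 mM CaCl2, HEPES pH 7.25. Calpains activated by Br-A-23187 ionophore (20 μM in added buffer); AMC fluorescence read each minute for 60 min at 37 °C to derive IC50.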

human μ-calpain = molecular target: T1, human μ-calpain (Homo sapiens, UniProt P07384); experiment: Enzymatic calpain inhibition assay; format: biochemical; conditions: substrate Suc-Leu-Tyr-AMC, read-out: Calp I IC50
T1 construct: purchased Calbiochem
T1 sequence (P07384 1-714): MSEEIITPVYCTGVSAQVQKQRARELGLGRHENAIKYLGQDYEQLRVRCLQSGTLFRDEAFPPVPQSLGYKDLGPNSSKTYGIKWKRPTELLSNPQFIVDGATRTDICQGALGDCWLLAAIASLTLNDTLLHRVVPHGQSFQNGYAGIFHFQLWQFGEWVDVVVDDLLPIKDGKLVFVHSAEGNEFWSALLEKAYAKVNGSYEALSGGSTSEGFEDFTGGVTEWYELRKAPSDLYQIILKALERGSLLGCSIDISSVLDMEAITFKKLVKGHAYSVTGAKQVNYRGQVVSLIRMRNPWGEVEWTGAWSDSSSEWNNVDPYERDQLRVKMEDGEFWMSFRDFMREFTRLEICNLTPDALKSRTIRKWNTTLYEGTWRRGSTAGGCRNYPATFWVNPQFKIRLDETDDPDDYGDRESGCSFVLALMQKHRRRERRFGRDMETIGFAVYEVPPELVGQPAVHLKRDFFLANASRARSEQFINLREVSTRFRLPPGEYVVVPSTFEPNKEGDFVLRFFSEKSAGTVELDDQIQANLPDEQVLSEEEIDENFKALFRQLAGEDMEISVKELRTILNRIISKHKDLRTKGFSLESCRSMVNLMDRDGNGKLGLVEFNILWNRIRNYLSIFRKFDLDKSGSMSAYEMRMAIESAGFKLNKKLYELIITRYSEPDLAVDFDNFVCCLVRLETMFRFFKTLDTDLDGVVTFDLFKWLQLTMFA
T1 sequence (P04632 1-268 partner): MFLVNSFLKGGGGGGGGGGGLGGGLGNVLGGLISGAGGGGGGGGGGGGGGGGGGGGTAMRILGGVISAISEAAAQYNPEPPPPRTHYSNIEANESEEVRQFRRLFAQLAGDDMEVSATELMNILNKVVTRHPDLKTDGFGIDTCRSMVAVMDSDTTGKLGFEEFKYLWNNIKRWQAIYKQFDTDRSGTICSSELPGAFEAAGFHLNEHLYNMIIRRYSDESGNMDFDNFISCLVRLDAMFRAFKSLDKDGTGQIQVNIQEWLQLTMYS
How it was run: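 Human μ-calpain (0.5 μg) with 250 μM Suc-Leu-Tyr-AMC in 100 mM imidazole pH 7.5, 5 mM cysteine, 5 mM CaCl2. AMC fluorescence (ex 360/em 440 nm) followed 30 min at 30 °C; IC50 determined graphically from initial velocities versus inhibitor concentration.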

With CCNC(=O)C(=O)[C@H](Cc1ccc(Br)cc1)NC(=O)[C@H](CC(C)C)NC(=O)CCCCC1CCSS1 (some centres unmarked) [Example 64] the IC50 [1] was 500 nM and the IC50 (human μ-calpain) was 25 nM.
